Among the test systems are NCI/ADR-RES ovarian; EKVX NSCLC; SW-620 colon; SK-MEL-2 melanoma; MDA-MB-435; SK-MEL-28 melanoma; OVCAR-8 ovarian; MDA-MB-231 breast; A498 renal; MOLT-4 leukemia.
Assay in all cases: growth of human tumour cells (NCI), 48 h

“And” between values parts separate entries of the source, which are not always exact repeats. Equal values may be shown once.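 96-well plates; 48 h exposure; 5 concentrations. Endpoints by linear interpolation between flanking doses. Not reached: highest tested concentration assigned. Abbreviation: GI50, concentration required for 50% inhibition of growth. At the TGI there is no net growth.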 A value given as a limit tells only on which side of the number the result lay.

For `c1ccc(CCCNc2nnnc3ccccc23)cc1`, the TGI with NCI/ADR-RES ovarian, in the assay on EKVX NSCLC, in the assay with SW-620 colon, with SK-MEL-2 melanoma, in the assay on MDA-MB-435 and in the assay with SK-MEL-28 melanoma was more than 100 µM in each case. For the same molecule, the TGI in the assay with OVCAR-8 ovarian, in the assay on MDA-MB-231 breast, in the assay on A498 renal and with MOLT-4 leukemia was more than 100 µM in each case.

Regarding `COc1nc2c(cc1S(=O)(=O)c1ccccc1)CCc1c-2cnn1Cc1ccccc1`, the GI50 was 9.84 µM with NCI/ADR-RES ovarian; 14 µM in the assay with EKVX NSCLC; more than 100 µM with SW-620 colon; 30.4 µM in the assay with SK-MEL-2 melanoma; more than 100 µM in the assay with MDA-MB-435; more than 100 µM with SK-MEL-28 melanoma. Moreover, the GI50 is 34.5 µM in the assay on OVCAR-8 ovarian, more than 100 µM in the assay with MDA-MB-231 breast, 2.7 µM with A498 renal and 5.48 µM in the assay on MOLT-4 leukemia. Also, the TGI in the assay on NCI/ADR-RES ovarian, in the assay on EKVX NSCLC, in the assay with SW-620 colon, with SK-MEL-2 melanoma, in the assay on MDA-MB-435 and with SK-MEL-28 melanoma was more than 100 µM each time. The TGI in the assay with OVCAR-8 ovarian, in the assay with MDA-MB-231 breast, in the assay with A498 renal and with MOLT-4 leukemia was more than 100 µM each time.

Turning to `COc1ccc2c(c1)CC[C@@H]1[C@@H]2CC[C@]2(C)c3[nH]ncc3C[C@@H]12`, the GI50 in the assay with NCI/ADR-RES ovarian was 15.8 µM; in the assay on EKVX NSCLC it was 16.3 µM; in the assay with SW-620 colon it was 16.1 µM; in the assay on SK-MEL-2 melanoma, 17 µM; in the assay on MDA-MB-435 it was 14.7 µM; in the assay with SK-MEL-28 melanoma, 32.1 µM. Further, the GI50 in the assay on OVCAR-8 ovarian is 15.6 µM; in the assay on MDA-MB-231 breast, 11.5 µM; in the assay on A498 renal, 25.9 µM; in the assay with MOLT-4 leukemia, 1.8 µM. In addition, the TGI in the assay with NCI/ADR-RES ovarian is more than 50 µM; with EKVX NSCLC, more than 50 µM; in the assay on SW-620 colon it was more than 50 µM; in the assay with SK-MEL-2 melanoma, more than 50 µM; in the assay on MDA-MB-435, 44.5 µM; with SK-MEL-28 melanoma, more than 50 µM. Besides, the TGI is more than 50 µM with OVCAR-8 ovarian, more than 50 µM with MDA-MB-231 breast, more than 50 µM with A498 renal and 40.6 µM with MOLT-4 leukemia.

With `O=C(C[C@@]1(O)C(=O)Nc2c(Cl)ccc(Cl)c21)c1ccc(C2CC2)cc1`, the GI50 was 0.212 µM in the assay on NCI/ADR-RES ovarian; 0.631 µM in the assay with EKVX NSCLC; 0.19 µM in the assay on SW-620 colon; 0.515 µM in the assay on SK-MEL-2 melanoma; 0.033 µM with MDA-MB-435; 3.5 µM with SK-MEL-28 melanoma. Besides, the GI50 in the assay on OVCAR-8 ovarian was 0.577 µM; with MDA-MB-231 breast, 0.798 µM; in the assay with A498 renal it was 0.213 µM; in the assay on MOLT-4 leukemia, 0.505 µM. In addition, the TGI with NCI/ADR-RES ovarian was found to be 13.9 µM; in the assay with EKVX NSCLC, 30.7 µM; in the assay on SW-620 colon it was 16.5 µM; in the assay on SK-MEL-2 melanoma, 18 µM; with MDA-MB-435, 0.232 µM; in the assay on SK-MEL-28 melanoma, 23.5 µM. The TGI with OVCAR-8 ovarian amounted to 19.3 µM; in the assay on MDA-MB-231 breast, 15.2 µM; in the assay on A498 renal, 0.75 µM; in the assay with MOLT-4 leukemia, 14.6 µM.

In the case of `COc1ccc2[nH]c(-c3ccccc3)c(C=C(C#N)C#N)c2c1`, the GI50 in the assay with NCI/ADR-RES ovarian is 2.79 µM; in the assay on EKVX NSCLC, 4.05 µM; in the assay on SW-620 colon, 3.62 µM; in the assay with SK-MEL-2 melanoma, 5.87 µM; in the assay on MDA-MB-435, 0.607 µM; in the assay on SK-MEL-28 melanoma, 4.44 µM. Also, the GI50 in the assay with OVCAR-8 ovarian is 7.71 µM; with MDA-MB-231 breast it was 3.8 µM; with A498 renal, 2.01 µM; in the assay with MOLT-4 leukemia, 3.74 µM. Besides, the TGI with NCI/ADR-RES ovarian is 14 µM; in the assay on EKVX NSCLC, more than 100 µM; with SW-620 colon it was more than 100 µM; in the assay on SK-MEL-2 melanoma, more than 100 µM; with MDA-MB-435, 4.68 µM; in the assay on SK-MEL-28 melanoma it was more than 100 µM. Further, the TGI in the assay on OVCAR-8 ovarian was more than 100 µM; in the assay with MDA-MB-231 breast it was more than 100 µM; with A498 renal, 6.22 µM; in the assay on MOLT-4 leukemia it was more than 100 µM.

As to `COc1ccc2[nH]c3c(C)c4cc[n+](C)cc4c(C)c3c2c1`, the GI50 in the assay on NCI/ADR-RES ovarian was 7.91 µM and 8.4 µM; with EKVX NSCLC, 0.63 µM; in the assay with SW-620 colon, 0.28 µM; in the assay on SK-MEL-2 melanoma, 4.87 µM; with MDA-MB-435 it was 13.4 µM and 5.86 µM; with SK-MEL-28 melanoma, 3.07 µM. In addition, the GI50 in the assay on OVCAR-8 ovarian is 0.0892 µM and 0.134 µM; in the assay on MDA-MB-231 breast, 6.34 µM and 1.89 µM and 7.41 µM; in the assay with MOLT-4 leukemia, 653 nM [middle of 4 runs]. Moreover, the TGI is 13.8 µM [middle of 4 runs] in the assay on SK-MEL-2 melanoma; more than 88.3 µM with MDA-MB-435; 10.8 µM [middle of 4 runs] in the assay on SK-MEL-28 melanoma; 53 µM and 133 µM in the assay on MDA-MB-231 breast; 51.9 µM [middle of 4 runs] with A498 renal.

Turning to `COc1ccc2c(c1)C(=O)c1c-2c(OCCN(C)C)nc2cc(OC)ccc12`, the GI50 is 0.695 µM in the assay on NCI/ADR-RES ovarian; 2.13 µM in the assay with EKVX NSCLC; 0.446 µM with SW-620 colon; 3.31 µM with SK-MEL-2 melanoma; 1.62 µM in the assay on MDA-MB-435; 2.08 µM in the assay with SK-MEL-28 melanoma. Further, the GI50 in the assay with OVCAR-8 ovarian was 0.957 µM; in the assay with MDA-MB-231 breast, 1.42 µM; with A498 renal, 1.39 µM; in the assay on MOLT-4 leukemia it was 0.32 µM. The TGI in the assay with NCI/ADR-RES ovarian was 4.2 µM; in the assay on EKVX NSCLC, 8.63 µM; in the assay with SW-620 colon, 1.73 µM; in the assay on SK-MEL-2 melanoma it was 10.3 µM; in the assay with MDA-MB-435, 3.72 µM; in the assay on SK-MEL-28 melanoma, 4.19 µM. Moreover, the TGI came to 5.35 µM in the assay with OVCAR-8 ovarian, 3.88 µM in the assay with MDA-MB-231 breast, 3.07 µM in the assay on A498 renal and 1.2 µM with MOLT-4 leukemia.

`CCC(C(=O)c1cccs1)C(O)(C(F)(F)F)C(F)(F)F` (centres undefined): the TGI in the assay on NCI/ADR-RES ovarian, in the assay with EKVX NSCLC, with SW-620 colon, in the assay with SK-MEL-2 melanoma, with MDA-MB-435 and in the assay on SK-MEL-28 melanoma was more than 100 µM in each case. Moreover, the TGI in the assay on OVCAR-8 ovarian, with MDA-MB-231 breast, in the assay on A498 renal and in the assay with MOLT-4 leukemia was more than 100 µM throughout.

For the origin of these results see PubChem BioAssay (NCI).
